Measured values as given in PMC4744035, “In Vivo, In Vitro, and In Silico Characterization of Peptoids as Antimicrobial Agents” (PLoS ONE, 2016).
Converted amounts (≈) assume the structure as drawn. Like-named read-outs stand apart in the source and are kept apart here. Numbered stars: 1 amine (or outer) side, 2 acyl side, 3 side chain; on linkers, the order of the positions; unused ones are H or OH. Square brackets hold non-standard residues; d marks the D form. Peptide text beside a SMILES is read from it. X1 = CC(C)[C@H](C)N(CC(=O)[*:2])[*:1]; Nspe = C[C@H](NCC(=O)O)c1ccccc1; Nlys = NCCCCNCC(=O)O

Tests used:
[1] = test system: E. faecalis F43559 (VRE); assay: microbe, parasite or virus in culture
How it was run: (§1)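 Agents were diluted serially at 10x in acetic acid/BSA, added to Mueller Hinton medium, then inoculated with bacteria at 2–7 x 10^5 CFU/mL. Plates were incubated overnight at 37°C and scored for growth.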

[2] = test system: E. coli 64771 (ESBL); assay: microbe, parasite or virus in culture
How it was run: as §1

[3] = test system: P. maltophilia ATCC13637; assay: microbe, parasite or virus in culture
How it was run: as §1

[4] = test system: P. aeruginosa H103 (wild type); assay: microbe, parasite or virus in culture
How it was run: as §1

[5] = test system: P. aeruginosa 198 (MDR); assay: microbe, parasite or virus in culture
How it was run: as §1

[6] = test system: E. faecium T62764 (VRE); assay: microbe, parasite or virus in culture
How it was run: as §1

[7] = test system: P. aeruginosa 9 (MDR); assay: microbe, parasite or virus in culture
How it was run: as §1

[8] = test system: P. aeruginosa H1027 (MDR); assay: microbe, parasite or virus in culture
How it was run: as §1

[9] = test system: E. faecium mic80 (VRE); assay: microbe, parasite or virus in culture
How it was run: as §1

[10] = test system: P. aeruginosa LES400 (MDR); assay: microbe, parasite or virus in culture
How it was run: as §1

[11] = test system: S. aureus ATCC25923; assay: microbe, parasite or virus in culture
How it was run: as §1

[12] = test system: K. pneumonia 61962 (ESBL); assay: microbe, parasite or virus in culture
How it was run: as §1

[13] = test system: E. coli 63103 (ESBL); assay: microbe, parasite or virus in culture
How it was run: as §1

[14] = test system: E. cloacae 218R Class C β-lactamase; assay: microbe, parasite or virus in culture
How it was run: as §1

[15] = test system: E. faecalis W61950 (VRE); assay: microbe, parasite or virus in culture
How it was run: as §1

[16] = test system: K. pneumonia 63575 (ESBL); assay: microbe, parasite or virus in culture
How it was run: as §1

[17] = test system: S. aureus C623 (MRSA); assay: microbe, parasite or virus in culture
How it was run: as §1

[18] = test system: P. aeruginosa 213 (MDR); assay: microbe, parasite or virus in culture
How it was run: as §1

[19] = test system: P. aeruginosa H1030 (MDR); assay: microbe, parasite or virus in culture; details: P. aeruginosa H1030 (MDR)
How it was run: as §1

[20] = test system: E. faecalis ATCC29212; assay: microbe, parasite or virus in culture; details: E. faecalis ATCC29212
How it was run: as §1

[21] = test system: E. coli ATCC 35218; format: cell-based
How it was run: (§2)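 MICs determined by 2:1 serial broth microdilution in cation-adjusted Mueller-Hinton broth per CLSI M7-A6, using inoculum at 1 x 10^6 CFU/mL mixed 1:1 with peptoid solution. Three independent replicates, each with two parallel trials.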

[22] = test system: B. subtilis ATCC 6633; format: cell-based
How it was run: as §2

[23] = test system: erythrocytes; assay: Hemolytic activity (HD10/HD50); format: cell-based
Text: Table 1 Characteristics of antimicrobial peptoids, screened for activity against B. subtilis and E. coli bacterial strains. | column: HD10 / HD50

[24] = test system: NIH 3T3 cells; assay: Metabolic activity, MTS assay; format: cell-based, mouse
How it was run: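 Mouse NIH 3T3 fibroblast monolayers, about 5000 cells per well, washed and exposed to serially diluted peptoids in Hank's balanced salt solution. Metabolic activity read by MTS; average of six replicate trials.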

## C[C@H](c1ccccc1)N(CC(N)=O)C(=O)CN(C(=O)CN(CCCCN)C(=O)CN(C(=O)CN(C(=O)CN(CCCCN)C(=O)CN(C(=O)CN(C(=O)CN(CCCCN)C(=O)CN(C(=O)CN(C(=O)CNCCCCN)[C@@H](C)c1ccccc1)[C@H](C)c1ccccc1)[C@@H](C)c1ccccc1)[C@H](C)c1ccccc1)[C@@H](C)c1ccccc1)[C@H](C)c1ccccc1)[C@@H](C)c1ccccc1 [1-Nrpe3,6,9,12, H-(NLys-Nspe-Nrpe)4-NH2]
[1]; E. faecalis F43559 (VRE)
  MIC: 4 µg/mL (≈ 2.2 µM)
[2]; E. coli 64771 (ESBL)
  MIC: 4 µg/mL (≈ 2.2 µM)
[3]; P. maltophilia ATCC13637
  MIC: 2 µg/mL (≈ 1.1 µM)
[4]; P. aeruginosa H103 (wild type)
  MIC: 8 µg/mL (≈ 4.4 µM)
[5]; P. aeruginosa 198 (MDR)
  MIC: 8 µg/mL (≈ 4.4 µM)
[6]; E. faecium T62764 (VRE)
  MIC: 1 µg/mL (≈ 0.55 µM)
[7]; P. aeruginosa 9 (MDR)
  MIC: 32 µg/mL (≈ 17.6 µM)
[8]; P. aeruginosa H1027 (MDR)
  MIC: 4 µg/mL (≈ 2.2 µM)
[9]; E. faecium mic80 (VRE)
  MIC: 4 µg/mL (≈ 2.2 µM)
[10]; P. aeruginosa LES400 (MDR)
  MIC: 4 µg/mL (≈ 2.2 µM)
[11]; S. aureus ATCC25923
  MIC: 4 µg/mL (≈ 2.2 µM)
[12]; K. pneumonia 61962 (ESBL)
  MIC: 8 µg/mL (≈ 4.4 µM)
[13]; E. coli 63103 (ESBL)
  MIC: 4 µg/mL (≈ 2.2 µM)
[14]; E. cloacae 218R Class C β-lactamase
  MIC: 4 µg/mL (≈ 2.2 µM)
[15]; E. faecalis W61950 (VRE)
  MIC: 8 µg/mL (≈ 4.4 µM)
[16]; K. pneumonia 63575 (ESBL)
  MIC: 16 µg/mL (≈ 8.79 µM)
[17]; S. aureus C623 (MRSA)
  MIC: 4 µg/mL (≈ 2.2 µM)
[18]; P. aeruginosa 213 (MDR)
  MIC: 8 µg/mL (≈ 4.4 µM)
[19]
  MIC: 8 µg/mL (≈ 4.4 µM)
[20]
  MIC: 4 µg/mL (≈ 2.2 µM)
[21]
  MIC E. coli: 6.3 µM (≈ 11.5 µg/mL)
[22]
  MIC B. subtilis: 1.6 µM (≈ 2.91 µg/mL)
[23]; erythrocytes, first value of HD10 / HD50 cell
  HD10 (hemolytic activity): 16
[23]; erythrocytes, second value of HD10 / HD50 cell
  HD50 (hemolytic activity): 67

## CC(C)[C@H](C)N(CC(=O)N(CC(=O)N(CCCCN)CC(=O)N(CC(=O)N(CC(=O)N(CCCCN)CC(=O)N(CC(=O)N(CC(=O)N(CCCCN)CC(=O)N(CC(=O)N(CC(N)=O)[C@@H](C)c1ccccc1)[C@@H](C)C(C)C)[C@@H](C)c1ccccc1)[C@@H](C)C(C)C)[C@@H](C)c1ccccc1)[C@@H](C)C(C)C)[C@@H](C)c1ccccc1)C(=O)CNCCCCN [1-Nsdp2.5.8.11, H-(NLys-Nsdp-Nspe)4-NH2] (H-[Nlys][X1][Nspe][Nlys][X1][Nspe][Nlys][X1][Nspe][Nlys][X1][Nspe]-NH2)
[24]
  ID50 (inhibitory dose, metabolic activity): 20 µM
[1]; F43559 (VRE)
  MIC: 32 µg/mL (≈ 19 µM)
[2]; 64771 (ESBL)
  MIC: 8 µg/mL (≈ 4.75 µM)
[3]; ATCC13637
  MIC: 1 µg/mL (≈ 0.594 µM)
[4]; H103 (wild type)
  MIC: 8 µg/mL (≈ 4.75 µM)
[5]; 198 (MDR)
  MIC: 32 µg/mL (≈ 19 µM)
[6]; T62764 (VRE)
  MIC: 2 µg/mL (≈ 1.19 µM)
[7]; 9 (MDR)
  MIC: 256 µg/mL (≈ 152 µM)
[8]; H1027 (MDR)
  MIC: 4 µg/mL (≈ 2.38 µM)
[9]; mic80 (VRE)
  MIC: 4 µg/mL (≈ 2.38 µM)
[10]; LES400 (MDR)
  MIC: 16 µg/mL (≈ 9.51 µM)
[11]; ATCC25923
  MIC: 8 µg/mL (≈ 4.75 µM)
[12]
  MIC: 64 µg/mL (≈ 38 µM)
[13]; 63103 (ESBL)
  MIC: 16 µg/mL (≈ 9.51 µM)
[14]; 218R Class C β-lactamase
  MIC: 16 µg/mL (≈ 9.51 µM)
[15]; W61950 (VRE)
  MIC: 32 µg/mL (≈ 19 µM)
[16]
  MIC: 32 µg/mL (≈ 19 µM)
[17]; C623
  MIC: 8 µg/mL (≈ 4.75 µM)
[18]; 213 (MDR)
  MIC: 16 µg/mL (≈ 9.51 µM)
[19]
  MIC: 16 µg/mL (≈ 9.51 µM)
[20]
  MIC: 8 µg/mL (≈ 4.75 µM)
[21]
  MIC E. coli: 12.5 µM (≈ 21 µg/mL)
[22]
  MIC B. subtilis: 0.78 µM (≈ 1.31 µg/mL)
[23]
  HD10 (hemolytic activity): 111
  HD50 (hemolytic activity): > 200
